Experimental data as given in PMC12838644, “Dihydrotanshinone as a Natural Product-Based CYP17A1 Lyase Inhibitor for Hyperandrogenic Disorders” (Biomolecules, 2026).
Where two headings read alike, the source gives them in different places.

Assays:
CYP17A1 17α-hydroxylase = molecular target: T1, CYP17A1 17α-hydroxylase (Homo sapiens, UniProt P05093); test: CYP17A1 17α-hydroxylase activity assay (progesterone to 17OH-progesterone, reconstituted POR/CYP17A1); format: biochemical; conditions: for inhibition at 10 µM: read-out: % Inhibition CYP17A1-OH
T1 sequence (P05093 1-508): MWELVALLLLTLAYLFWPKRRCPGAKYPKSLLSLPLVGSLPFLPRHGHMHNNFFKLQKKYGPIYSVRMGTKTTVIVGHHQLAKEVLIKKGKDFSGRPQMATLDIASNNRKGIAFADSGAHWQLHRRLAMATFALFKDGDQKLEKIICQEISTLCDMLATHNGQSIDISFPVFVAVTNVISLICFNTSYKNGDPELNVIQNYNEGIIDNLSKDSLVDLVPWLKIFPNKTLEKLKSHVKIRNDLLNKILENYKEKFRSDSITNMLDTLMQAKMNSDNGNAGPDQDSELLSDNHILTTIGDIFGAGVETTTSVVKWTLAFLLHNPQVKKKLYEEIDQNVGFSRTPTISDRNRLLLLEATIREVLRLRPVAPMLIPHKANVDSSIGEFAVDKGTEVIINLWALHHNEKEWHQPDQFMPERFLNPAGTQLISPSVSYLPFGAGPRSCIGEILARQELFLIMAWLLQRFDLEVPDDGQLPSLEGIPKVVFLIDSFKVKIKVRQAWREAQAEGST
Protocol: Assay of CYP17A1 17α-hydroxylase and 17,20-lyase activities were performed as described previously. The 17α-hydroxylase activity was measured by conversion of progesterone to 17OH-progesterone, while production of DHEA from 17OH-pregnenolone was used for monitoring the 17,20-lyase activity of CYP17A1. In vitro CYP17A1 assays were performed using a liposome system consisting of human p450 oxidoreductase (POR) and CYP17A1 at a ratio of 3:4 (POR: CYP17A1). The final assay mixture consisted of proteins (37.5 […] CYP17A1), 10 mM MgCl2, 6 mM potassium acetate (KOAc), 0.05 mg/mL DLPC,1 mM reduced Glutathione in 50 mM HEPES-NaOH buffer (pH 7.4), and the reaction volume was 200 μL. The drugs were added to the final mixture and incubated for 1h before the catalytic reaction was initiated by the addition of NADPH to 1 mM final concentration. Radiolabeled [^14C]-progesterone (10,000 cpm in 1 µM) was used as a tracer in each reaction. Steroids were extracted and separated by thin-layer chromatography (TLC) on silica gel (SIL G/UV254) TLC plates (Macherey-Nagel, Oensingen, Switzerland) as previously described.

CYP21A2 = molecular target: T2, CYP21A2 (Homo sapiens, UniProt P08686); test: CYP21A2 activity assay in transiently transfected HEK-293T cells; format: cell-based; conditions: for inhibition at 10 µM: read-out: % Inhibition CYP21A2
T2 construct: expressed in transfected cells; host or cells: HEK293 / HEK-293T
T2 sequence (P08686 1-495): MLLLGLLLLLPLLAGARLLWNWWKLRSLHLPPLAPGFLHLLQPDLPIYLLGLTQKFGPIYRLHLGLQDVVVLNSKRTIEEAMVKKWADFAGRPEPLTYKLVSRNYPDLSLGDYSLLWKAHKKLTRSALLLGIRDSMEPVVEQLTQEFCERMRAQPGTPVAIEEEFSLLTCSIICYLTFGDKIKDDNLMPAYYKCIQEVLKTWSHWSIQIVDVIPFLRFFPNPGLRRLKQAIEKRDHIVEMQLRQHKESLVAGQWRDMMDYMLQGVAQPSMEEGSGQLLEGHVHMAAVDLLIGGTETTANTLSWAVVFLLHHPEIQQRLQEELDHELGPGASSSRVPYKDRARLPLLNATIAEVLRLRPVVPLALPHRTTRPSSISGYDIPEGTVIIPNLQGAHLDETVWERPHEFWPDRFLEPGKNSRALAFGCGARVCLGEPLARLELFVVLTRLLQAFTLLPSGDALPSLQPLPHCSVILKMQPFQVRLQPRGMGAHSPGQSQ
Protocol: Transient transfections were performed using the CYP21A2 WT vector as described previously. HEK293 cells were seeded in six-well plates (3 × 10^5 cells/well). After 24 h, the growth medium was replaced, and cells were transfected using Lipofectamine 2000 (Thermo Fisher Scientific, Bedford, MA, USA) with 12.5 µg of plasmid (plasmid concentration: 1068 µg/mL). Twenty-four hours after transfection, transfected cells were replated in 24-well plates (1.5 × 10^5 cells/well) to ensure homogeneity of the cell population across the wells. Six hours after transfection, 2 mL of fresh medium was replaced, and the cells were cultured for 48 h. Cell growth was examined. […] DMSO was added to the negative control, and 10 µM abiraterone was added to the positive control, and the cells were incubated for 4 h. Functional assays were initiated by adding 1 µM unlabeled progesterone (using 10,000 cpm of [^14C]-progesterone as a tracer). After incubation at 37 °C for 1 h, the culture medium and cells were harvested. Steroids were extracted from the culture medium with ethyl acetate and isooctane (1:1 volume ratio), dried, and dissolved in dichloromethane. Steroids were separated by thin-layer chromatography (TLC), placed on a phosphor screen, and visualized using a Typhoon PhosphorImager FLA-7000 (GE Healthcare Bio-Sciences AB, Uppsala, Sweden). Image intensity was measured and quantified using ImageQuant TL v8 (Cytiva, Marlborough, MA, USA). The CYP21A2 enzyme activity was expressed as relative steroid conversion. Steroids were quantified as a percentage of radioactivity incorporated into […] to the total radioactivity measured in the whole sample and compared between the WT and variants. Cells were collected with trypsin and washed with 1× PBS to quantify the amount of protein. Results were analyzed from three technical replicates. To ensure a similar amount of CYP21A2 in each reaction, a Western blot analysis was performed to normalize the enzyme activity with the relative CYP21A2 expression.

HEK-293T cells = test: alamarBlue cytotoxicity assay, HEK-293T; format: cell-based; conditions: Homo sapiens, read-out: HEK-293T (IC50)
Protocol: RWPE-1 cells (ATCC: CRL-36O7) were cultured in keratinocyte serum-free media (K-SFM) supplemented with 0.05 mg/mL bovine pituitary extract and 5 ng/mL epidermal growth factor, and 1% penicillin (100 U/mL; Thermo Fisher Scientific, Waltham, MA, USA), and streptomycin (100 μg/mL; GIBCO). […] Passage numbers remained below 30 as per standard procedures. All cell lines were validated and characterized before use to ensure their authenticity and reliability. Routine mycoplasma testing was conducted to confirm that the cells were free from contamination. Additionally, key functional and morphological characteristics were assessed to verify their alignment with previously reported profiles.
The alamarBlue® assay (Thermo Fisher Scientific, Waltham, MA USA) was conducted as previously described. RWPE-1 cells, HEK-293 cells, and NCI-H295R cells were plated in 96-well plates at 10,000 cells per well and incubated overnight at 37 °C with 5% CO2. […] Cells were incubated for an additional 24 h. Cell viability was measured using the alamarBlue® assay. Post-incubation, 0.05 mg/mL alamarBlue® solution in phosphate-buffered saline (PBS) was added to each well. The plates were incubated in the dark at 37 °C with 5% CO2 for 4 h, and fluorescence was measured at an excitation wavelength of 540 nm and an emission wavelength of 590 nm. Cell viability was calculated relative to the control sample treated with DMSO. All experiments were conducted in triplicate.

[1] = 10 µM (SM extract 10 µg/mL), calculated as 100% − % residual activity
[2] = 10 µM (SM extract 10 µg/mL), transfected HEK-293T cells, calculated as 100% − % residual activity
[3] = cytotoxicity, alamarBlue, 24 h incubation, mean ± SD, three experiments

Compound | inhibition at 10 µM (CYP17A1 17α-hydroxylase; [1]) [%] | % Inhibition CYP21A2 (CYP21A2; [2]) | inhibition at 10 µM (CYP21A2; [2]) [%] | IC50 (HEK-293T cells; [3]) [nM] | Residual 17α-hydroxylase activity (CYP17A1 17α-hydroxylase; % of DMSO control, 10 µM (SM extract 10 µg/mL)) [%] | inhibition at 10 µM (CYP17A1 17α-hydroxylase) [%] | Residual CYP21A2 activity (CYP21A2; % of DMSO control, 10 µM, transfected HEK-293T cells) [%] | inhibition at 10 µM (CYP21A2; HEK-293T) [%] | IC50 (HEK-293T cells; 24 h) [nM]
Cc1coc2c1C(=O)C(=O)c1c-2ccc2c(C)cccc12 [TAI, tanshinone I] | < 1 | no meaningful inhibition | < 1 | 1080 ± 260 |  |  |  |  | 
Cc1cccc2c3c(ccc12)C1=C(C(=O)C3=O)[C@@H](C)CO1 [DT, dihydrotanshinone I] |  |  |  |  | > 93 | 6.5 | 85 | 14.9 | 1310 ± 470
Cc1coc2c1C(=O)C(=O)c1c-2ccc2c1CCCC2(C)C [TAII, tanshinone IIA] | < 1 | no meaningful inhibition | < 1 | 2260 ± 1920 |  |  |  |  | 
